PubChem BioAssay (NCI)
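Cultured in 96-well plates, cells were exposed to test compound for 48 hours across five concentrations. GI50 = concentration required for 50% inhibition of growth. The concentration for full growth arrest is given as TGI.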

What was measured:
Test in all cases: NCI tumour cell line growth inhibition, 48 h
786-0 renal = test system: 786-0 renal
EKVX NSCLC = test system: EKVX NSCLC
HCT-15 colon = test system: HCT-15 colon
HOP-62 NSCLC = test system: HOP-62 NSCLC
KM12 colon = test system: KM12 colon
MDA-MB-231 breast = test system: MDA-MB-231 breast
NCI-H23 lung = test system: NCI-H23 lung
NCI-H522 lung = test system: NCI-H522 lung
SK-MEL-2 melanoma = test system: SK-MEL-2 melanoma
SN12C renal = test system: SN12C renal

Row | SMILES | GI50 (786-0 renal) [µM] | TGI (786-0 renal) [µM] | GI50 (EKVX NSCLC) [µM] | TGI (EKVX NSCLC) [µM] | GI50 (HCT-15 colon) [µM] | TGI (HCT-15 colon) [µM] | GI50 (HOP-62 NSCLC) [µM] | TGI (HOP-62 NSCLC) [µM] | GI50 (KM12 colon) [µM] | TGI (KM12 colon) [µM] | GI50 (MDA-MB-231 breast) [µM] | TGI (MDA-MB-231 breast) [µM] | GI50 (NCI-H23 lung) [µM] | TGI (NCI-H23 lung) [µM] | GI50 (NCI-H522 lung) [µM] | TGI (NCI-H522 lung) [µM] | GI50 (SK-MEL-2 melanoma) [µM] | TGI (SK-MEL-2 melanoma) [µM] | GI50 (SN12C renal) [µM] | TGI (SN12C renal) [µM]
1 | COc1ccc2c(c1)C(=O)c1c-2n(CCCN=[N+]=[N-])c(=O)c2cc(N)ccc12 | > 100 | > 100 | > 100 | > 100 | > 100 | > 100 | > 100 | > 100 | 53.6 | > 100 | > 100 | > 100 | > 100 | > 100 | > 100 | > 100 | > 100 | > 100 | > 100 | > 100
2 | O=C(O)c1cc2cc(O)ccc2[nH]1 | > 100 | > 100 | > 100 | > 100 | > 100 | > 100 | > 100 | > 100 | > 100 | > 100 | > 100 | > 100 | > 100 | > 100 | > 100 | > 100 | > 100 | > 100 | > 100 | > 100
3 | C=C1[C@@H](O)C[C@H]2C(C)(C)C[C@H](Cl)C[C@]2(C)[C@H]1C[C@H](O)[C@H]1CC(=O)NC1=O | 0.0149 | 0.136 | 0.0157 | 0.128 | 0.0255 | 0.596 | 0.0116 | 0.0961 | < 0.012 | 0.441 | 0.015 | 0.19 | 0.0193 | 0.15 | < 0.01 | 0.0293 | < 0.0111 | 0.0469 | < 0.01 | 0.108
4 | Cc1ccc(S(=O)(=O)NNC(C[N+](=O)[O-])c2ccccc2)cc1 (stereo not given) | – | > 100 | – | > 100 | – | 39.5 | – | 74.5 | – | > 100 | – | 81.3 | – | > 100 | – | 44.1 | – | 75 | – | > 100
5 | CNC1=CC(=O)C2=C(C1=O)C1C3=C(C(=O)C(Br)=C(OC)C3=O)C2c2ccccc21 (stereo not given) | 1.38 | 3.5 | 1.53 | 3.31 | 2.06 | 10.5 | 1.55 | 4.61 | 1.87 | 5.93 | 1.41 | 3.17 | 4.44 | 16 | 1.3 | 2.98 | 3.03 | 14.1 | 1.05 | 2.07
6 | C[C@@H]1CC[C@@H]2[C@@H]1[C@H](OC(=O)c1ccc3ccccc3c1)[C@]1(C3CCCCC3)C[C@@H](OC(=O)CO)[C@@]2(C)O1 | 5.41 | 20 | 11.4 | 26.7 | 7.93 | 22.4 | 12.8 | 25.6 | 11.1 | 26.5 | 13.6 | 29.3 | 14.3 | 33.2 | 10.3 | 24.1 | 15.3 | 30.8 | 0.0525 | 12.6
7 | CCOc1ccc(NC(=O)c2cc3ccccc3cc2O)cc1 | 28.4 | 74.5 | > 100 | > 100 | > 100 | > 100 | 27.7 | 81.5 | > 100 | > 100 | 53.8 | > 100 | 45.9 | > 100 | 59.1 | > 100 | 76.7 | > 100 | > 100 | > 100
8 | c1ccc2c(-c3cnn4cc(-c5ccc(N6CCNCC6)cc5)cnc34)ccnc2c1 | 0.527 | 1.03 | 1.89 | 3.76 | 0.325 | 1.45 | 0.634 | 1.24 | 1.15 | 2.39 | 1.48 | 3.03 | 1.48 | 3.05 | 1.5 | 2.9 | 1.57 | 2.98 | 1.22 | 2.62
9 | O=C(O)c1nnsc1-c1csnn1 | – | > 100 | – | > 100 | – | > 100 | – | > 100 | – | > 100 | – | > 100 | – | > 100 | – | > 100 | – | > 100 | – | > 100
10 | CCCC(CCC)Oc1ccc(CCCC2=C(O)c3ccccc3C(=O)C2=O)cc1 | 4.11 | 16.8 | 5.61 | 18 | 3.76 | 15 | 7.6 | 22.3 | 6.18 | 22.3 | 12.3 | 28.9 | 5.94 | 21.1 | 5.75 | 22.2 | 6.85 | 28 | 6.79 | 22.5
